Earlier results, collected in PMC7553790 (The Journal of Experimental Medicine, 2020).
Read-outs that look alike come from different tables or passages of the source.

System: Aβ42
Conditions: cell-based studies

IC50 (read-out: IC50 of decreasing Aβ42, ref Imbimbo et al., 2007)	IC50 (read-out: IC50 of Aβ42, ref Rogers et al., 2012)	Compound
3.6 µM		O=C(O)C1(c2ccc(-c3ccc(Cl)c(Cl)c3)c(F)c2)CC1 [CHF5074, 1-(3′,4′-Dichloro-2-fluoro[1,1′-biphenyl]-4-yl)-cyclopropanecarboxylic acid]
	> 0.02 µM	O=C(O)[C@H](CC1CCC1)c1cc(Cl)c(OCC(F)(F)F)c(-c2ccc(C(F)(F)F)cc2)c1 [EVP-0015962]
